Three compounds from patent US20160281050A1, “METHODS FOR TREATING A CULTURE OF HAEMATOCOCCUS PLUVIALIS FOR CONTAMINATION USING SALT AND HYDROGEN PEROXIDE” (HELIAE DEVELOPMENT LLC, priority 2015, published 2016) can be followed below.

The subject of one series is pure chytrid culture. Kind of series: Chytrid tolerance: pure chytrid culture in well plate, observed under a microscope (Examples 13-14). The series is classed as cell-based. The conditions noted are these: 40 ppm. How it is done: Experiments were performed to determine chytrid tolerance to bleach, salt, Lufenuron (chemical biocide), and Rid Fungus (blend of natural organic herbs) for evaluation as a treatment for chytrids. A pure chytrid culture in a well plate was treated every 24 hours and observed under a microscope to determine the effect. An untreated culture was used as a control for comparison purposes. Qualitative assessments and quantitative estimates were made by visual observation under a microscope.
Several concentrations of salt and Rid Fungus (blend of organic herbs) were further investigated as a chytrid treatment, as in Example 13. A pure chytrid culture in a well plate was treated and visually observed under a microscope to determine the effect. An untreated culture was used as a control for comparison purposes.

The test system of another series is chytrids. Put plainly: Haematococcus red cyst cells infected with chytrids treated in well plates (Example 15). The series is classed as cell-based. How it is done:
Several concentrations of bleach and Lufenuron were further investigated for their effectiveness as chytrid treatments for Haematococcus pluvialis during culturing. Cultures of Haematococcus pluvialis (Strain 1) red cyst cells infected with chytrids were treated in well plates (0.5 mL volume) with bleach or Lufenuron to evaluate the effect on the Haematococcus cells if bleach or Lufenuron were to be used as a contamination treatment. A first control culture of Haematococcus red cyst cells absent of chytrids and a second control culture of healthy Haematococcus red cyst cells inoculated with chytrids were used as comparisons for the treatments. The cultures were treated with bleach at or less than the tolerance level of Haematococcus: 0.01, 0.02 and 0.03 mL/L of 12.5% stock concentration bleach (calculated concentration 0.00125, 0.0025, and 0.00375 mL/L), or different concentrations of Lufenuron (0.01, 0.1 and 1% of culture volume). The cultures were observed under a microscope during the experiment to determine effectiveness.

For series [1], the system named is chytrid zoospores and sporangia. The following applies: 1% dose of a solution comprising 50% NaOH; 25, 40, and 50° C. The procedure:
A solution comprising 50% sodium hydroxide (NaOH) was evaluated as a treatment for chytrids that could be applied to empty reactors in order to clean them for subsequent batches. A pure culture of chytrid zoospores and sporangia was treated with a 1% dose of a solution comprising 50% NaOH at temperatures of 25, 40, and 50° C. The cultures were then observed under a microscope for a reduction in the chytrid zoospores or sporangia number, or a reduction in the integrity of the chytrid cells.

Series [2] concerns Haematococcus pluvialis (Strain 1).

Take `O=C(NC(=O)c1c(F)cccc1F)Nc1cc(Cl)c(OC(F)(F)C(F)C(F)(F)F)cc1Cl` (stereo not drawn) [Lufenuron]: the “microscope observation of pure chytrid culture” value was “swimming zoospores” with pure chytrid culture (after 1 hour); “Swimming zoospores” in the series on pure chytrid culture (after 24 hours); “heavy bacteria with sporangia and zoospores” in the series on pure chytrid culture (after 48 hours and 72 hours). The “microscope observation of infected red cyst culture” value is “swimming zoospores and positive infection” with chytrids (0.01% of culture volume, after 24 and 48 hours); “Some swimming zoospores, Ochromonas (single-celled, motile, golden-brown alga), and active infection” with chytrids (0.01% of culture volume, after 72 hours); “dead sporangia, some infection, and active zoospores” in the series on chytrids (0.10% of culture volume, after 24 and 48 hours); “Some swimming zoospores and active infection” in the series with chytrids (0.10% of culture volume, after 72 hours); “dead sporangia and zoospores attached to cyst cells” in the series on chytrids (1.00% of culture volume, after 24 hours); “Ochromonas, bacteria, dead sporangia, zoospores attached to cyst cells, and few swimming zoospores” with chytrids (1.00% of culture volume, after 48 hours). In addition, the “microscope observation of infected red cyst culture” value in the series with chytrids (1.00% of culture volume, after 72 hours) was “Ochromonas, no active infection, and no zoospores”.

For `[Na+].[OH-]` [NaOH, sodium hydroxide], the “reduction in chytrid zoospores or sporangia number or integrity” value in series [1] is “not a reduction in chytrid zoospores or sporangia number or integrity”.

Regarding bleach, in series [2], the “known tolerance of Haematococcus pluvialis (Strain 1)” value was 0.00375 mL/L.
